Like-named read-outs stand apart in the source and are kept apart here.
Columns and labels:
[1] = Solubility (Sol., Table 1); assay type: physicochemical
pH (Table 1) = assay type: physicochemical
[2] = system: Escherichia coli (ATCC 25922); experiment: Minimum inhibitory concentration (MIC) assay, Example 33; assay type: cell-based; details: Escherichia coli
In short: (§1)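 Colonies re-streaked twice on agar (20 to 24 hrs, 35±2° C) supplied inoculum adjusted to 0.5 McFarland, diluted 1:100 into medium, then added 1:2 to CAMHB wells holding 2-fold compound dilutions. After incubation at 35° C, MIC was recorded per CLSI.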

[3] = system: Pseudomonas aeruginosa (ATCC 27853); experiment: as above; assay type: cell-based; details: Pseudomonas aeruginosa
In short: as §1

[4] = system: Staphulococcus aureus (ATCC 29213); experiment: as above; assay type: cell-based, Staphylococcus aureus; details: Staphylococcus aureus
In short: as §1

[5] = system: Candida albicans (ATCC 90029); experiment: as above; assay type: cell-based; details: Candida albicans
In short: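 MIC read per CLSI after incubation at 35° C. Colonies in RPMI 1640 adjusted to OD530 0.08–0.13, diluted 1:50 and 1:20 to twice test density, then added 1:2 to wells holding 2-fold serial drug dilutions in RPMI 1640 (CLSI microdilution).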

[6] = system: Aspergillus niger (CMCC 98003); experiment: as above; assay type: cell-based; details: Aspergillus niger
In short: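 Conidia gently probed from sporulating colonies into RPMI 1640, set to 0.09-0.13 at 530 nm, then diluted 1:50 and mixed 1:2 with 2-fold serially diluted compounds. Following CLSI guidelines, incubation was at 35 °C before the MIC was recorded.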

[7] = system: Candida albicans (ATCC 90029); experiment: Time kill study, Example 33 (0 to 5 min); assay type: cell-based; details: 1×MIC
In short: (§2)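 Read-out: Log10 CFU/mL by colony count on agar after 24 to 48 hrs. Exposure: strain suspension and compound solution at equal volume, CLSI method, samples at 0 min, 30 sec, 1 min and 5 mins diluted in test medium before plating.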

[8] = system: Escherichia coli (ATCC 25922); experiment: Time kill study, Example 33 (0 to 5 min); assay type: cell-based; details: 1×MIC
In short: as §2

[9] = system: Pseudomonas aeruginosa (ATCC 27853); experiment: Time kill study, Example 33 (0 to 5 min); assay type: cell-based; details: 1×MIC
In short: as §2

[10] = system: Staphylococcus aureus (ATCC 29213); experiment: Time kill study, Example 33 (0 to 5 min); assay type: cell-based; details: 1×MIC
In short: as §2

[11] = system: Aspergillus niger (CMCC 98003); experiment: Time kill study, Example 33 (0 to 5 min); assay type: cell-based; details: 1×MIC
Experimental: Thirty compounds were tested for antimicrobial activity using standard procedures and standard strains for both the minimum inhibitory concentration (MIC) assay and a time kill study. Both the MIC assay and the time kill study were performed according to Clinical and Laboratory Standards Institute (CLSI) guidelines. Three bacteria strains, Escherichia coli (ATCC 25922), Pseudomonas aeruginosa (ATCC 27853), Staphulococcus aureus (ATCC 29213), and two fungus strains, Candida albicans (ATCC 90029) and Aspergillus niger (CMCC 98003), were used in the experiments.
The viable counts in Log10 CFU/mL at each time point were recorded.
Time kill studies. Strain suspensions were prepared as described above for the MIC test, and strain suspensions and compound solutions were mixed in the same volume. Samples were removed at specified times including 0 min, 30 sec, 1 min and 5 mins, were diluted in the test medium and streaked on agar. Colonies were counted after 24 to 48 hrs of incubation.
The MIC values for thirty compounds against Escherichia coli, Pseudomonas aeruginosa, Staphulococcus aureus, Candida albicans, and Aspergillus niger were recorded and are presented in Table 3 and Table 4.

[12] = ATCC25922, n = 1, read-out: MIC E. coli
[13] = ATCC25922, n = 2, read-out: MIC E. coli
[14] = ATCC27853, Table 19 summary, read-out: MIC
[15] = ATCC27853, n = 1, read-out: MIC P. aeruginosa
[16] = ATCC27853, n = 2, read-out: MIC P. aeruginosa
[17] = ATCC29213, Table 19 summary, read-out: MIC
[18] = ATCC29213, n = 1, read-out: MIC S. aureus
[19] = ATCC29213, n = 2, read-out: MIC S. aureus
[20] = ATCC90029, Table 19 summary, read-out: MIC
[21] = ATCC90029, n = 1, read-out: MIC Candida albicans
[22] = ATCC90029, n = 2, read-out: MIC Candida albicans
[23] = CMCC98003, Table 19 summary, read-out: MIC
[24] = CMCC98003, n = 1, read-out: MIC Aspergillus niger
[25] = CMCC98003, n = 2, read-out: MIC Aspergillus niger

CCCCCCCCCCCCOC(=O)C(C)NCCO.Cl (stereo not drawn) [Nex-61, Dodecyl 2-((2-hydroxyethyl)amino)propanoate hydrochloride]
Sol. [1]: 40% | pH (pH (Table 1)): 1.50 | MIC ([2]; ATCC25922, Table 19 summary of Example 33 and Example 35, read-out: MIC): 780 µg/mL | MIC [2, 12]: 780 µg/mL | MIC [2, 13]: 1560 µg/mL | MIC [3, 14]: 6250 µg/mL | MIC [3, 15]: 6250 µg/mL | MIC [3, 16]: 6250 µg/mL | MIC [4, 17]: 50 µg/mL | MIC [4, 18]: 50 µg/mL | MIC [4, 19]: 50 µg/mL | MIC [5, 20]: 12.5 µg/mL | MIC [5, 21]: 12.5 µg/mL | MIC [5, 22]: 12.5 µg/mL | MIC [6, 23]: 50 µg/mL | MIC [6, 24]: 50 µg/mL | MIC [6, 25]: 25 µg/mL | Viable counts, Candida albicans time kill study ([7]; 0.5 min): 5.19 Log10 CFU/mL | Viable counts, Candida albicans time kill study ([7]; 1 min): 5.36 Log10 CFU/mL | Viable counts, Candida albicans time kill study ([7]; 5 min): 5.3 Log10 CFU/mL | Viable counts, Candida albicans time kill study ([7]; time 0): 5.23 Log10 CFU/mL | Viable counts, Escherichia coli time kill study ([8]; 0.5 min): 5.54 Log10 CFU/mL | Viable counts, Escherichia coli time kill study ([8]; 1 min): 5.61 Log10 CFU/mL | Viable counts, Escherichia coli time kill study ([8]; 5 min): 4.9 Log10 CFU/mL | Viable counts, Escherichia coli time kill study ([8]; time 0): 5.78 Log10 CFU/mL | Viable counts, Pseudomonas aeruginosa time kill study ([9]; 0.5 min): 4 Log10 CFU/mL | Viable counts, Pseudomonas aeruginosa time kill study ([9]; 1 min): <3.70 Log10 CFU/mL | Viable counts, Pseudomonas aeruginosa time kill study ([9]; 5 min): <3.52 Log10 CFU/mL | Viable counts, Pseudomonas aeruginosa time kill study ([9]; time 0): 5.71 Log10 CFU/mL | Viable counts, Staphylococcus aureus time kill study ([10]; 0.5 min): 6.15 Log10 CFU/mL | Viable counts, Staphylococcus aureus time kill study ([10]; 1 min): 6.07 Log10 CFU/mL | Viable counts, Staphylococcus aureus time kill study ([10]; 5 min): 5.54 Log10 CFU/mL | Viable counts, Staphylococcus aureus time kill study ([10]; time 0): 6.38 Log10 CFU/mL | Viable counts, Aspergillus niger time kill study ([11]; 0.5 min): 5.30 Log10 CFU/mL | Viable counts, Aspergillus niger time kill study ([11]; 1 min): 5.16 Log10 CFU/mL | Viable counts, Aspergillus niger time kill study ([11]; 5 min): 5.11 Log10 CFU/mL | Viable counts, Aspergillus niger time kill study ([11]; time 0): 5.36 Log10 CFU/mL | melting point: 134 to 139 °C

CCCCCCCCCCCCOC(=O)C(C)NC.Cl (stereo not drawn) [Nex-59, Dodecyl 2-(methylamino)propanoate hydrochloride]
Sol. [1]: 33% | pH (pH (Table 1)): 2.17 | MIC [2, 12]: 50 µg/mL | MIC [2, 13]: 50 µg/mL | MIC [3, 14]: 3130 µg/mL | MIC [3, 15]: 3130 µg/mL | MIC [3, 16]: 3130 µg/mL | MIC [4, 17]: 50 µg/mL | MIC [4, 18]: 50 µg/mL | MIC [4, 19]: 50 µg/mL | MIC [5, 20]: 50 µg/mL | MIC [5, 21]: 25 µg/mL | MIC [5, 22]: 25 µg/mL | MIC [6, 23]: 50 µg/mL | MIC [6, 24]: 50 µg/mL | MIC [6, 25]: 50 µg/mL | Viable counts, Candida albicans time kill study ([7]; 0.5 min): 5.18 Log10 CFU/mL | Viable counts, Candida albicans time kill study ([7]; 1 min): 5.32 Log10 CFU/mL | Viable counts, Candida albicans time kill study ([7]; 5 min): 5.23 Log10 CFU/mL | Viable counts, Candida albicans time kill study ([7]; time 0): 5.3 Log10 CFU/mL | Viable counts, Escherichia coli time kill study ([8]; 0.5 min): 5.04 Log10 CFU/mL | Viable counts, Escherichia coli time kill study ([8]; 1 min): 5.11 Log10 CFU/mL | Viable counts, Escherichia coli time kill study ([8]; 5 min): 4.56 Log10 CFU/mL | Viable counts, Escherichia coli time kill study ([8]; time 0): 5.34 Log10 CFU/mL | Viable counts, Pseudomonas aeruginosa time kill study ([9]; 0.5 min): 5.26 Log10 CFU/mL | Viable counts, Pseudomonas aeruginosa time kill study ([9]; 1 min): 4.78 Log10 CFU/mL | Viable counts, Pseudomonas aeruginosa time kill study ([9]; 5 min): <3.52 Log10 CFU/mL | Viable counts, Pseudomonas aeruginosa time kill study ([9]; time 0): 5.65 Log10 CFU/mL | Viable counts, Staphylococcus aureus time kill study ([10]; 0.5 min): 6.33 Log10 CFU/mL | Viable counts, Staphylococcus aureus time kill study ([10]; 1 min): 6.22 Log10 CFU/mL | Viable counts, Staphylococcus aureus time kill study ([10]; 5 min): 6.15 Log10 CFU/mL | Viable counts, Staphylococcus aureus time kill study ([10]; time 0): 6.33 Log10 CFU/mL | Viable counts, Aspergillus niger time kill study ([11]; 0.5 min): 5.30 Log10 CFU/mL | Viable counts, Aspergillus niger time kill study ([11]; 1 min): 5.33 Log10 CFU/mL | Viable counts, Aspergillus niger time kill study ([11]; 5 min): 5.18 Log10 CFU/mL | Viable counts, Aspergillus niger time kill study ([11]; time 0): 5.27 Log10 CFU/mL | melting point: 78 to 83 °C

Reference: patent publication US20140357713A1, “ANTIMICROBIAL COMPOUNDS AND METHODS OF USE” (NexMed Holdings, Inc., priority 2012, published 2014)
